Experimental data reported in patent US20150005281A1, “PYRIMIDINE-2,4-DIAMINE DERIVATIVES AS KINASE INHIBITORS” (Cellzome Limited, priority 2011, published 2015).

Experiments:
Type in all cases: binding
JAK2 = target: T1, JAK2 (Homo sapiens, UniProt O60674); test: Kinobeads assay with immunodetection, JAK2; conditions: mixed Molt4/Ramos lysate, read-out: Inhibition values (IC50) JAK2
T1 construct: endogenous in cells; host or cells: Molt4 (ATCC CRL-1582) and Ramos (ATCC CRL-1596) cells; mixed lysate 1:2
T1 sequence (O60674 whole entry): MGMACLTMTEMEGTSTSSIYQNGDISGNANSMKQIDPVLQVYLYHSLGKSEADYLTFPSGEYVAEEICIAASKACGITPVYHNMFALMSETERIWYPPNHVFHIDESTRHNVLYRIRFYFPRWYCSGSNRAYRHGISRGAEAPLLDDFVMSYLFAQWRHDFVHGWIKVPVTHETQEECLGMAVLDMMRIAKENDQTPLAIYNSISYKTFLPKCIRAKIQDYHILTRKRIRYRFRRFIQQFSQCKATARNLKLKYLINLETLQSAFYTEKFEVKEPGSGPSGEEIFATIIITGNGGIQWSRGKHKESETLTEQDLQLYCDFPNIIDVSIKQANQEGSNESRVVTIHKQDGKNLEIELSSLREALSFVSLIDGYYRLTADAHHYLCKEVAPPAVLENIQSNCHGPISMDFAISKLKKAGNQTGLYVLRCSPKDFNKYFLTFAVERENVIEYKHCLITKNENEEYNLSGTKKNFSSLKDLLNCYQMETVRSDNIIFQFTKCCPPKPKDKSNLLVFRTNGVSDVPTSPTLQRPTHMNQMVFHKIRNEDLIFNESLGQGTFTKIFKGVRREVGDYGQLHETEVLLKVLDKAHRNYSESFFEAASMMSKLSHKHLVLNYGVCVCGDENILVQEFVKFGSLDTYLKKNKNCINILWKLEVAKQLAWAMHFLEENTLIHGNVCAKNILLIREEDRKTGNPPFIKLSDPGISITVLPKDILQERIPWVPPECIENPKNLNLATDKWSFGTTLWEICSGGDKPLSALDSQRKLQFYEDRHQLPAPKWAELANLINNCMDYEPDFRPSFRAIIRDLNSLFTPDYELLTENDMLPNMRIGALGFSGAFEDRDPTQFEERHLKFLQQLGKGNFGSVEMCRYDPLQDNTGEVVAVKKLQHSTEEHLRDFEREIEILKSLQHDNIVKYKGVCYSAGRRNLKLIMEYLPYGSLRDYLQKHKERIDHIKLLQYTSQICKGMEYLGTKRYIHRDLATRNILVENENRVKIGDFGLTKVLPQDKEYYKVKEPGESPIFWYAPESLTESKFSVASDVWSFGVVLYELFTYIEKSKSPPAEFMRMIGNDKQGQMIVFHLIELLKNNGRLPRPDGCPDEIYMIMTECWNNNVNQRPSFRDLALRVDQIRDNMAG
Method in brief: (§1)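 Competition binding: test compounds (9-step 1:3 dilutions of a 5 mM DMSO stock) compete with affinity matrix ligand for kinases in Molt4 plus Ramos lysate (ratio 1:2, 10 mg/mL) over 3 h in a cold room. Captured kinases are detected by specific antibodies in dot blot, and IC50 values are derived per kinase.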

JAK1 = target: T2, JAK1 (Homo sapiens, UniProt P23458); test: Kinobeads assay with immunodetection, JAK1; conditions: for IC50: Kinobeads assay, mixed Molt4/Ramos lysate, read-out: Inhibition values (IC50) JAK1
T2 construct: endogenous in cells; host or cells: Molt4 (ATCC CRL-1582) and Ramos (ATCC CRL-1596) cells; mixed lysate 1:2
T2 sequence (P23458 whole entry): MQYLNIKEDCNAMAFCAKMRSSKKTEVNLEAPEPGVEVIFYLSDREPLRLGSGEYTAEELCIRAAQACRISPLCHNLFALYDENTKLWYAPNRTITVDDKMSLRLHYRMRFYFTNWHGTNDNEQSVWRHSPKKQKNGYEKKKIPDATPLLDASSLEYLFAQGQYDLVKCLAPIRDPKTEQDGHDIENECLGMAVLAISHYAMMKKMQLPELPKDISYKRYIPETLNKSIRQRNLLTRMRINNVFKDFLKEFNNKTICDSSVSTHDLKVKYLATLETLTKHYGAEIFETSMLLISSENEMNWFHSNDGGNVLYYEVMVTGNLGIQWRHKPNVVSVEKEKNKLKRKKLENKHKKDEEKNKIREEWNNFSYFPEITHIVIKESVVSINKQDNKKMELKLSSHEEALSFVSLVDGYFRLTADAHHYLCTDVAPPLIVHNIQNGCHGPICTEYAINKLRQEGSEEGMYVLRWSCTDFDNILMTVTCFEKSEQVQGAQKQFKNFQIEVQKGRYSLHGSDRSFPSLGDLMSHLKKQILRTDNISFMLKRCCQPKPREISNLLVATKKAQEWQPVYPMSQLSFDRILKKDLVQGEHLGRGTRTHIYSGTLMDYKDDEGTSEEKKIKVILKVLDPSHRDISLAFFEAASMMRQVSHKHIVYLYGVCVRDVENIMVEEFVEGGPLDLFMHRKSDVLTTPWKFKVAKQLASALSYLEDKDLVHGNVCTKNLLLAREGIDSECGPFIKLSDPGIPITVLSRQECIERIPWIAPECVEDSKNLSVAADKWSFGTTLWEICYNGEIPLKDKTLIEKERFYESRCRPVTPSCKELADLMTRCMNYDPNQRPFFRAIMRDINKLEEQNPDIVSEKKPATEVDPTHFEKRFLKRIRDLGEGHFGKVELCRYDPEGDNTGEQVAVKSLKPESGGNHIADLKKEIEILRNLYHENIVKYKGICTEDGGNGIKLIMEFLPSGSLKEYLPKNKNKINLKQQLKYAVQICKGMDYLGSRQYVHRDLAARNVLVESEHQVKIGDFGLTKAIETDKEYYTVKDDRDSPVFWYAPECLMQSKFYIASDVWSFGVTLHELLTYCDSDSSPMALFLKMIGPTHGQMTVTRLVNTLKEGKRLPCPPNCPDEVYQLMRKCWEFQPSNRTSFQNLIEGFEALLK
Method in brief: as §1

JAK3 = target: T3, JAK3 (Homo sapiens, UniProt P52333); test: Kinobeads assay with immunodetection, JAK3; conditions: for IC50: Kinobeads assay, mixed Molt4/Ramos lysate, read-out: Inhibition values (IC50) JAK3
T3 construct: endogenous in cells; host or cells: Molt4 (ATCC CRL-1582) and Ramos (ATCC CRL-1596) cells; mixed lysate 1:2
T3 sequence (P52333 1-1124): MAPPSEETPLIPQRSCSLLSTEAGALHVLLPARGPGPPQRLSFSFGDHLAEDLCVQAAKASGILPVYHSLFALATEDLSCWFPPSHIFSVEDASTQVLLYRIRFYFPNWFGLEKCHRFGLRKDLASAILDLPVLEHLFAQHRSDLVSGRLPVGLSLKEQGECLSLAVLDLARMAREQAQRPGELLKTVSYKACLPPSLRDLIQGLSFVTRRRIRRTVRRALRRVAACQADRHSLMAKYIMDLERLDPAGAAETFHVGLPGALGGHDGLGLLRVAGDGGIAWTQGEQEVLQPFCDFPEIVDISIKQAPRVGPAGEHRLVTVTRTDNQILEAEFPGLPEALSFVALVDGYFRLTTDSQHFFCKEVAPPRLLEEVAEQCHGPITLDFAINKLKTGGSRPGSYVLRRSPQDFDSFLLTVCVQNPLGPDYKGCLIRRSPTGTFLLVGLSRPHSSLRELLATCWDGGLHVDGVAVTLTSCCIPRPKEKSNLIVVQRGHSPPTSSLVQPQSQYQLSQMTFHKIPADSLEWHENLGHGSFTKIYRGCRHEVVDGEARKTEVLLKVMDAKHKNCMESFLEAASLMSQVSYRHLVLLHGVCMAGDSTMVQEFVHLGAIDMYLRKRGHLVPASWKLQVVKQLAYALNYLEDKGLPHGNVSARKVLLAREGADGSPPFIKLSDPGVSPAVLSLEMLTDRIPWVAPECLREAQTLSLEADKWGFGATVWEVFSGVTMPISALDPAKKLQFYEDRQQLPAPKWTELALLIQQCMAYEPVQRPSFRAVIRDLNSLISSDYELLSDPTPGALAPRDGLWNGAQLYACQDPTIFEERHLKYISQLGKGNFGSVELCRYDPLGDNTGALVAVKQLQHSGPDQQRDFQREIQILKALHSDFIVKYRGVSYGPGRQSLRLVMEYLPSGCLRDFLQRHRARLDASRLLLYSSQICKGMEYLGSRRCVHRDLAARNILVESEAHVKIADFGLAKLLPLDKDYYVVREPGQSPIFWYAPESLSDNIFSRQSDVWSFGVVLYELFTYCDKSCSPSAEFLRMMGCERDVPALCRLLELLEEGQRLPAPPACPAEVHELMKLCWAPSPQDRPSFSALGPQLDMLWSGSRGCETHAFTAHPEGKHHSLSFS
Method in brief: as §1

TYK2 = target: T4, TYK2 (Homo sapiens, UniProt P29597); test: Kinobeads assay with immunodetection, TYK2; conditions: for IC50: Kinobeads assay, mixed Molt4/Ramos lysate, read-out: Inhibition values (IC50) Tyk2
T4 construct: endogenous in cells; host or cells: Molt4 (ATCC CRL-1582) and Ramos (ATCC CRL-1596) cells; mixed lysate 1:2
T4 sequence (P29597 whole entry): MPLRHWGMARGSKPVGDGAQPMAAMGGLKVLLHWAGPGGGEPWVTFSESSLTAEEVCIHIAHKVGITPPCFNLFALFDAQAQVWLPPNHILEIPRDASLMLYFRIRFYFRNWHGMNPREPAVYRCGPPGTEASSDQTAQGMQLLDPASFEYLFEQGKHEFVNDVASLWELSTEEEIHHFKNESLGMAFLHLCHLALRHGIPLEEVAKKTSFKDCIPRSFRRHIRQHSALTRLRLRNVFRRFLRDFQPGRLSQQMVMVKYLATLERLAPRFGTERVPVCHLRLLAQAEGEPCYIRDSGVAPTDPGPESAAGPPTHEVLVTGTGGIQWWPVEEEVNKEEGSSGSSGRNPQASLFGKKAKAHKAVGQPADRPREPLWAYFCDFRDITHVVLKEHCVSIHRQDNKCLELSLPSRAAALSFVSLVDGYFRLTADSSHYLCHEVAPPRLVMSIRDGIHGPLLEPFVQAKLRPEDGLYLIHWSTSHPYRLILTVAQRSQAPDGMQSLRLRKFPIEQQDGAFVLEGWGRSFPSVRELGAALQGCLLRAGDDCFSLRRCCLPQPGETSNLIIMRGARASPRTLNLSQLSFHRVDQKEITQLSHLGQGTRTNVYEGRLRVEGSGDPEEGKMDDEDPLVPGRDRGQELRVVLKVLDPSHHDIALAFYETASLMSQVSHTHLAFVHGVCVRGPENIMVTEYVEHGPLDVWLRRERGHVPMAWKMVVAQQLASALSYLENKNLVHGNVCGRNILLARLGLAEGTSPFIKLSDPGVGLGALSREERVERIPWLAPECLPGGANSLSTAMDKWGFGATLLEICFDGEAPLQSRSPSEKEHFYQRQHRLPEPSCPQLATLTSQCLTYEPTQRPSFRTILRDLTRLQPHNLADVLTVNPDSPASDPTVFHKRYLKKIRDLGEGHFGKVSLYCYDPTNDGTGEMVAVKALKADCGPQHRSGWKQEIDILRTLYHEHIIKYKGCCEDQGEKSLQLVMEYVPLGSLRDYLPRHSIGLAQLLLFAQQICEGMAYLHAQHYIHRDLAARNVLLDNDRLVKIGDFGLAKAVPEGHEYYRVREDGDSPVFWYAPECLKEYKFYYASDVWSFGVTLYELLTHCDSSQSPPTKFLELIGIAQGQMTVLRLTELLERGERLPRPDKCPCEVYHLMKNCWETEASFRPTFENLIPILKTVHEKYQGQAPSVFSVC
Method in brief: as §1

Structure (SMILES) | IC50 (JAK2) [nM] | IC50 (JAK1) [nM] | IC50 (JAK3) [nM] | IC50 (TYK2) [nM] | Selectivity ratio over JAK2, Tyk2 (TYK2) | Selectivity ratio over JAK2, JAK1 (JAK1) | Selectivity ratio over JAK2, JAK3 (JAK3)
Cn1cc(Nc2ncc(Cl)c(NC[C@@H]3CCCN3C(=O)CCC#N)n2)cn1 [Example 92, (S)-4-(2-(((5-chloro-2-((1-methyl-1H-pyrazol-4-yl)amino)pyrimidin-4-yl)amino)methyl)pyrrolidin-1-yl)-4-oxobutanenitrile] | 100 to 1000 | < 100 | < 100 | < 100 | – | JAK1 = 30 | –
Cn1cc(Nc2ncc(Cl)c(NC[C@H]3CCCCN3S(C)(=O)=O)n2)cn1 [Example 43, (R)-5-chloro-N^2-(1-methyl-1H-pyrazol-4-yl)-N^4-((1-(methylsulfonyl)piperidin-2-yl)methyl)pyrimidine-2,4-diamine] | 100 to 1000 | 100 to 1000 | < 100 | < 100 | – | – | Jak3 = 18
Cn1cc(Nc2ncc(Cl)c(NC[C@@H]3CCCN3CCS(C)(=O)=O)n2)cn1 [Example 82, (S)-5-chloro-N^2-(1-methyl-1H-pyrazol-4-yl)-N^4-((1-(2-(methylsulfonyl)ethyl)pyrrolidin-2-yl)methyl)pyrimidine-2,4-diamine] | < 100 | < 100 | 100 to 1000 | < 100 | – | JAK1 = 34 | –
C=CC(=O)N1CC[C@H](CNc2nc(Nc3cnn(CCO)c3)ncc2Cl)C1 [Example 23, (R)-1-(3-(((5-chloro-2-((1-(2-hydroxyethyl)-1H-pyrazol-4-yl)amino)pyrimidin-4-yl)amino)methyl)pyrrolidin-1-yl)prop-2-en-1-one] | 1000 to 10000 | < 100 | < 100 | < 100 | – | – | JAK3 = 270
Cc1cnc(Nc2cnn(C)c2)nc1NC[C@H]1CCCN1S(C)(=O)=O [Example 76, (R)-5-methyl-N^2-(1-methyl-1H-pyrazol-4-yl)-N^4-((1-(methylsulfonyl)pyrrolidin-2-yl)methyl)pyrimidine-2,4-diamine] | 100 to 1000 | < 100 | < 100 | < 100 | – | JAK1 = 26 | –
C=CS(=O)(=O)N1CCC[C@H]1CNc1nc(Nc2cnn(CCO)c2)ncc1Cl [Example 15, (S)-2-(4-((5-chloro-4-(((1-(vinylsulfonyl)pyrrolidin-2-yl)methyl)amino)pyrimidin-2-yl)amino)-1H-pyrazol-1-yl)ethanol] | 100 to 1000 | < 100 | < 100 | < 100 | – | JAK1 = 13 | –
CC(=O)N1CCCC[C@@H]1CNc1nc(Nc2cnn(CCO)c2)ncc1Cl [Example 40, (R)-1-(2-(((5-chloro-2-((1-(2-hydroxyethyl)-1H-pyrazol-4-yl)amino)pyrimidin-4-yl)amino)methyl)piperidin-1-yl)ethanone] | 100 to 1000 | 100 to 1000 | < 100 | < 100 | Tyk2 = 10 | – | –
Cn1cc(Nc2ncc(Cl)c(NC[C@H]3CCCN3S(C)(=O)=O)n2)cn1 [Example 5, (R)-5-chloro-N^2-(1-methyl-1H-pyrazol-4-yl)-N^4-((1-(methylsulfonyl)pyrrolidin-2-yl)methyl)pyrimidine-2,4-diamine] | 100 to 1000 | < 100 | < 100 | < 100 | – | JAK1 = 13 | –
C=CC(=O)N1CC[C@@H](CNc2nc(Nc3cnn(C)c3)ncc2Cl)C1 [Example 28, (S)-1-(3-(((5-chloro-2-((1-methyl-1H-pyrazol-4-yl)amino)pyrimidin-4-yl)amino)methyl)pyrrolidin-1-yl)prop-2-en-1-one] | > 10000 | 1000 to 10000 | 100 to 1000 | 1000 to 10000 | – | – | –

Now from value to compound:

IC50 (JAK2) [nM] | IC50 (JAK1) [nM] | IC50 (JAK3) [nM] | IC50 (TYK2) [nM] | Selectivity ratio over JAK2, Tyk2 (TYK2) | Selectivity ratio over JAK2, JAK1 (JAK1) | Selectivity ratio over JAK2, JAK3 (JAK3) | Structure (SMILES)
1000 to 10000 | < 100 | 100 to 1000 | < 100 | Tyk2 = 38 | – | – | Cc1cnc(Nc2cnn(C)c2)nc1NC[C@@H]1CCCN1CCC#N [Example 106, (S)-3-(2-(((5-methyl-2-((1-methyl-1H-pyrazol-4-yl)amino)pyrimidin-4-yl)amino)methyl)pyrrolidin-1-yl)propanenitrile]
1000 to 10000 | < 100 | < 100 | < 100 | Tyk2 = 140 | – | – | Cc1cnc(Nc2cnn(CC(F)F)c2)nc1NC[C@H]1CCCN1CCC#N [Example 117, (R)-3-(2-(((2-((1-(2,2-difluoroethyl)-1H-pyrazol-4-yl)amino)-5-methylpyrimidin-4-yl)amino)methyl)pyrrolidin-1-yl)propanenitrile]
100 to 1000 | 100 to 1000 | < 100 | 100 to 1000 | – | – | JAK3 = 78 | Cn1cc(Nc2ncc(Cl)c(NC[C@@H]3CCCN(C(=O)CCC#N)C3)n2)cn1 [Example 136, (S)-4-(3-(((5-chloro-2-((1-methyl-1H-pyrazol-4-yl)amino)pyrimidin-4-yl)amino)methyl)piperidin-1-yl)-4-oxobutanenitrile]
1000 to 10000 | < 100 | 1000 to 10000 | 100 to 1000 | – | JAK1 = 68 | – | Cn1cc(Nc2ncc(Cl)c(NC[C@@H]3CCCN3CCCS(C)(=O)=O)n2)cn1 [Example 119, (S)-5-chloro-N^2-(1-methyl-1H-pyrazol-4-yl)-N^4-((1-(3-(methylsulfonyl)propyl)pyrrolidin-2-yl)methyl)pyrimidine-2,4-diamine]
1000 to 10000 | < 100 | 1000 to 10000 | 100 to 1000 | – | JAK1 = 81 | – | Cc1cnc(Nc2cnn(CC(F)F)c2)nc1NC[C@@H]1C[C@H](F)CN1CCS(C)(=O)=O [Example 120, N^2-(1-(2,2-difluoroethyl)-1H-pyrazol-4-yl)-N^4-(((2S,4S)-4-fluoro-1-(2-(methylsulfonyl)ethyl)pyrrolidin-2-yl)methyl)-5-methylpyrimidine-2,4-diamine]
< 100 | < 100 | < 100 | < 100 | – | JAK1 = 19 | – | Cn1cc(Nc2ncc(Cl)c(NC[C@@H]3C[C@H](F)CN3CCCC#N)n2)cn1 [Example 133, 4-((2S,4S)-2-(((5-chloro-2-((1-methyl-1H-pyrazol-4-yl)amino)pyrimidin-4-yl)amino)methyl)-4-fluoropyrrolidin-1-yl)butanenitrile]
100 to 1000 | < 100 | 100 to 1000 | < 100 | – | JAK1 = 69 | – | Cc1cnc(Nc2cnn(CC(F)F)c2)nc1NC[C@H]1CCCN1C(=O)CC#N [Example 118, (R)-3-(2-(((2-((1-(2,2-difluoroethyl)-1H-pyrazol-4-yl)amino)-5-methylpyrimidin-4-yl)amino)methyl)pyrrolidin-1-yl)-3-oxopropanenitrile]
100 to 1000 | < 100 | 100 to 1000 | < 100 | – | JAK1 = 17 | – | Cc1cnc(Nc2cnn(C)c2)nc1NC[C@@H]1C[C@H](F)CN1CCC#N [Example 101, 3-((2S,4S)-4-fluoro-2-(((5-methyl-2-((1-methyl-1H-pyrazol-4-yl)amino)pyrimidin-4-yl)amino)methyl)pyrrolidin-1-yl)propanenitrile]
> 10000 | < 100 | 100 to 1000 | 100 to 1000 | – | JAK1 = 150 | – | Cc1cnc(Nc2cnn(C)c2)nc1NC[C@@H]1C[C@H](F)CN1C(=O)CC#N [Example 103, 3-((2S,4S)-4-fluoro-2-(((5-methyl-2-((1-methyl-1H-pyrazol-4-yl)amino)pyrimidin-4-yl)amino)methyl)pyrrolidin-1-yl)-3-oxopropanenitrile]
